Read-outs that look alike come from different tables or passages of the source. Blank lines part the entries; values can stand above or below the compound they belong to.
How the values were obtained:
[1] = Protocol: The method has historic precedent for accurately predicting in vivo percutaneous absorption kinetics.
To assure the integrity of each skin section, its permeability to tritiated water was determined before application of the test products.

[2] = Exposure of gels to laboratory light; format: physicochemical; details: exposure to laboratory light for up to five days
[3] = Saturation solubility of compound (II) in the gel formulation; format: physicochemical; details: acidified nonaqueous gel, refrigerated storage (2-8° C.)
[4] = Degradation of compound (II) in neutral ethanol; format: physicochemical; details: room temperature, 24 hours
[5] = skin dosed with compound (II) formulations

SMILES: COC(=O)c1ccc(O)cc1 [Methylparaben]
presence of degradation products in the samples [1, 5]: present in the majority of the samples

SMILES: O=C(O)c1ccc(O)cc1 [4-OH Benzoic acid]
presence of degradation products in the samples [1, 5]: present in the majority of the samples

detectable compound (II) found in the epidermis ([1]; human, 24 h, pH 6): 0.3-0.9% | detectable compound (II) found in the surface wash ([1]; human, 24 h, pH 6): 20-69% | effect of light on assay values for compound (II) [2]: did not significantly affect | formulation's saturation solubility for compound (II) [3]: approximately 1.6 % w/w | degradation of compound (II) [4]: approximately 50%
SMILES: COC(=O)c1ccc(OC(=O)CCCCCCC(=O)NO)cc1 [Compound (II)]

presence of degradation products in the samples [1]: present in the majority of the samples
SMILES: O=C(O)CCCCCCC(=O)NO [Compound (III)]
